From patent US10221426B2, “Constitutively active PYR/PYL receptor proteins for improving plant stress tolerance” (The Regents of the University of California, priority 2009, dated 2019) come the findings set out here.

Molecules are shown by their SMILES.

The test relates to Arabidopsis seeds. The experiment in a line: Seed germination inhibition. The class given is in vivo. Conditions: for amount required to ensure 100% inhibition of germination: scored 3 days post-imbibition, dose curve analyses. The procedure:
FIG. 1. Pyrabactin is a seed selective ABA agonist. (A) Structures of molecules described in this study. (B) Pyrabactin activity is suppressed by abi1-1. Seeds of the genotype shown at top were imbibed on media containing 25 μM pyrabactin and scored for germination 4 days after stratification. Shown at bottom are IC50 values for pyrabactin's germination effect on the genotypes characterized. (C) Microarray comparison of pyrabactin and ABA treatments in seeds. The Y-axis plots the log2 transformed value for a probe's response to 25 μM pyrabactin (relative to untreated control) and the X-axis a probe's response to 1 μM ABA. […] (D) Microarray comparison of cycloheximide and ABA responses in seeds. […] (E) Microarray comparison of pyrabactin and ABA responses in seedlings. Seven-day old seedlings were transferred to 10 μM ABA or 50 μM pyrabactin containing plates for 24 hours and then mRNA samples profiled. Inset in each scatter plot is the Pearson correlation coefficient for each comparison. Detailed microarray methods are described in the Examples section.
FIG. 2. PYR1 encodes an ABA responsive START-domain protein. (A) Pyr1 alleles. Shown are the allele names, strain names (in parentheses) and amino acid changes caused by the Pyr1 mutant alleles identified by screening for pyrabactin resistant mutations. (B) Pictographic representation of Pyr1 and Pyl1-Pyl4 expression values housed in public microarray databases. The heatmap shown at top right is for the first upper three panels and the bottom heatmap for the guard cell data. Plots were made using the eFP browser (D. Winter et al., PLoS ONE 2, e718 (2007)). (C) 35S::GFP-PYR1 complements pyr1-1. Seeds of the genotypes shown were stratified 4 days on 25 μM pyrabactin and then germinated at RT, 90% RH for 3 days in darkness. […] (D) Pyr/Pyls are required for normal ABA-induced gene expression in seedlings. Shown are qRT-PCR results for the ABA-responsive gene RD29. L, Ler; C, Col; and Q, quadruple mutant. (E) Pyr/Pyl genes are required for normal ABA-induced stress-induced gene expression in seedlings. Shown are qRT-PCR results for two ABA-responsive taqman probes, as described in the Examples section. L=Ler, C=Col, Q=quadruple mutant.
As part of an earlier effort, we identified a germination inhibitor named pyrabactin (Y. Zhao et al., Nat Chem Biol 3, 716 (2007)). […] To test this hypothesis, we examined the pyrabactin sensitivity of mutant lines with altered ABA signaling, biosynthesis or gibberellic acid (GA) perception.
We next performed microarray experiments to evaluate the similarity of the transcriptional responses induced by ABA and pyrabactin treatments. For microarray, tissue was prepared and RNA extracted from Columbia wild type seeds sown on 0.5×MS media (˜2500 seeds per 150 mm plate) containing either 1 μM ABA, 25 μM pyrabactin, 25 μM 2,4-Dinitrophenol (DNP), 1 μM cycloheximide, 2 μM methotrexate or 1% DMSO control plates (all chemicals are dissolved in DMSO). The concentrations utilized for these experiments were normalized for germination inhibition activity by dose curve analyses, i.e. the amount of both compounds required to ensure 100% inhibition of germination when scored 3 days post-imbibition. ABA (±stereoisomers), DNP, cycloheximide and methotrexate were purchased from Sigma Aldrich. Seeds were stratified for 4 days and then incubated in the dark at room temperature for 24 hours. […]

As to `O=S(=O)(NCc1ccccn1)c1ccc(Br)c2ccccc12` [pyrabactin], the “amount required to ensure 100% inhibition of germination” value is 25 µM. The effect on germination entry (in vivo) is reported as “inhibits germination”. Besides, the “germination of Columbia wild type seeds” value (stratified 4 days on 25 μM pyrabactin, germinated at RT, 90% RH for 3 days in darkness) is on record as “unable to germinate”.

On to `CC1=CC(=O)CC(C)(C)[C@@]1(O)/C=C/C(C)=C\C(=O)O` [ABA, Abscisic acid], for which the “amount required to ensure 100% inhibition of germination” value amounted to 1 µM.
